Measurements taken from patent US6319894A, “Complexes and combinations of fetuin with therapeutic agents” (The Picower Institute for Medical Research, priority 1997, dated 2001).
Counter-ions that a name gives are not always drawn. Like-named read-outs stand apart in the source and are kept apart here.

Key:
[1] = system: human peripheral blood mononuclear cells; conditions: background statement, cited from earlier work
[2] = system: mice, endotoxin (LPS) lethality; conditions: in vivo; background statement; cited from earlier work
[3] = system: LPS-stimulated RAW 264.7 cells (LPS-inducible arginase II activity); assay: Urea production (LPS-inducible arginase II functional assay) in LPS-stimulated RAW 264.7 cells; format: cell-based, murine
Protocol: (§1) Typically, cultures were maintained in 150-mm plates with 30 mls culture medium until they reached 80-90% confluence, and were then subjected to different experimental protocols. […] The incubation was continued for another 24 hours before subjecting the cultures to further experiments.
(§2) LPS (endotoxin) was sonicated for 10 minutes and added to culture media to achieve the desired final concentration, typically 100 ng/ml.
Accumulation of urea in the cell culture medium was measured as a functional assay of LPS-inducible arginase II activity. […] The optical density at 535 nm was measured, and urea concentrations were calculated by comparison with OD535 of standard dilutions of urea prepared in culture medium.
Whole-cell lysate preparations were fractionated by sequential ultrafiltration over Amicon Centricon®-100, and Centricon®-30 filters, respectively.

arginine uptake = assay: Assay for arginine uptake; format: cell-based
[4] = system: LPS-stimulated human PBMCs (TNF production); assay: TNF production in LPS-stimulated human PBMCs; format: cell-based; conditions: CNI-1493 50 nM, FIG. 11; for enhancement of CNI-1493 activity (TNF suppression in PBMCs): fetuin 1.0 μg/ml or 10 μg/ml
[5] = system: LPS-stimulated RAW 264.7 cells (TNF production); assay: TNF production (ELISA) in LPS-stimulated RAW 264.7 cells; format: cell-based, murine; conditions: for inhibition at 2.5 µM: RAW264.7, 4 h
Protocol: as §1, §2

[6] = system: LPS-stimulated RAW 264.7 cells (LPS-inducible arginase II activity); conditions: pre-treatment; prior studies; cited from earlier work
[7] = system: LPS-stimulated RAW 264.7 cells (IL-1 β, IL-6, MIP-1α, and MIP-1β); conditions: pre-treatment; prior studies; cited from earlier work
[8] = Charge at physiological pH; format: physicochemical
[9] = system: LPS-stimulated RAW 264.7 cells (inducible nitric oxide synthase, iNOS); conditions: pre-treatment; prior studies; cited from earlier work
[10] = system: LPS-stimulated RAW 264.7 cells (TNF production); conditions: pre-treatment; prior studies; cited from earlier work
[11] = system: LPS-stimulated RAW 264.7 cells (inducible nitric oxide synthase, iNOS); assay: NO / nitrite production (Griess reaction, iNOS activity) in LPS-stimulated RAW 264.7 cells; format: cell-based, murine; conditions: for augmentation of CNI-1493 activity (nitrite production): glycoprotein 2.5 μg/ml, CNI-1493 2.0 μM, FIG. 13
Protocol: as §1, §2
Inducible nitric oxide synthase activity (iNOS) was assayed indirectly by measuring NO^2- production. NO^2- was measured by a colorimetric assay based on the Griess reaction. […] The optical density was read at 560 nm after 10 min, and NO^2- concentration was determined with reference to a standard curve by using concentrations of 1.5 to 50 μM sodium nitrite in culture medium.

rat paw edema = conditions: carageenan administration; background statement; cited from earlier work
NO production = conditions: background statement; cited from earlier work
[12] = system: LPS-challenged mice (serum TNF); assay: Serum TNF levels in LPS-challenged mice; format: in vivo; conditions: fetuin 20 mg/kg pretreatment 1 hour; CNI-1493 2.5 mg/kg ip; LPS 13 mg/kg; serum at four hours; FIG. 12
Protocol: The fetuin pretreatment dose was 20 mg/kg.

[13] = LPS-activated macrophages, CNI-1493 alone
[14] = non-responsive cultures (≥56 hours after 1:4 split), CNI-1493 up to 5 μM

CC(=NNC(=N)N)c1cc(NC(=O)CCCCCCCCC(=O)Nc2cc(C(C)=NNC(=N)N)cc(C(C)=NNC(=N)N)c2)cc(C(C)=NNC(=N)N)c1 [CNI-1493, N,N'-bis[3,5-bis[1-(aminoiminomethyl)hydrazonoethyl]phenyl]decanediamide tetrahydrochloride]
inhibition of TNF translation [1]: inhibits TNF (tumor necrosis factor) translation
suppression of production of IL-1, IL-6, MIP-1α and MIP-1β ([1]; human peripheral blood mononuclear cells): suppresses the production of IL-1, IL-6, MIP-1α and MIP-1β
protection against lethal effects of endotoxin [2]: protects mice against lethal effects of endotoxin
suppression of urea production [3, 13]: dose-dependent suppression of urea production
inhibition at 5 µM ([3]; Mus musculus, RAW264.7, 20 h, read-out: decrease in urea accumulation compared to control): > 95%
inhibition at 2.5 µM ([3]; Mus musculus, RAW264.7, read-out: suppression of urea): > 50%
inhibition at 2.5 µM ([3]; Mus musculus, RAW264.7, read-out: suppression of urea accumulation): < 10%
IC50 ([3]; Mus musculus, RAW264.7, responsive cultures, estimated, read-out: IC50 (concentration of 50% inhibition) with respect to urea production): < 2 µM
effect on level of urea [3, 14]: not reduced
urea concentration, effect of CNI-1493 alone ([3]; partially non-responsive cells, 2.5 μM CNI-1493, FIG. 9): small degree of inhibitory activity
IC50 (arginine uptake): ~10 µM
suppression of TNF production in PBMCs by CNI-1493 [4]: active in suppressing TNF production
suppression of TNF-α production [5, 13]: dose-dependent suppression
inhibition at 2.5 µM ([5]; Mus musculus, read-out: suppression of TNF accumulation): < 10%
inhibition at 2.5 µM ([5]; Mus musculus, read-out: suppression of TNF production): > 90%
IC50 ([5]; Mus musculus, RAW264.7, responsive cultures, stated as approximately the same as the urea IC50, read-out: IC50 with respect to TNF production): < 2 µM
inhibition of TNF levels in culture supernatants ([5]; low serum precultured (non-responsive) cells, FIG. 1): not responsive
effect on level of TNF [5, 14]: not reduced
suppression of LPS-stimulated urea production [6]: suppresses
suppression of several other cytokines such as IL-1 β, IL-6, MIP-1α, and MIP-1β [7]: suppresses
charge at physiological pH [8]: four positive charges
suppression of LPS-stimulated NO production [9]: suppresses
suppression of LPS-stimulated TNF production [10]: suppresses
suppression of NO production [11, 13]: dose-dependent suppression
inhibition at 2.5 µM ([11]; Mus musculus, RAW264.7, read-out: suppression of NO): > 50%
inhibition at 2.5 µM ([11]; Mus musculus, RAW264.7, read-out: suppression of NO accumulation): < 10%
IC50 ([11]; Mus musculus, RAW264.7, responsive cultures, stated as approximately the same as the urea IC50, read-out: IC50 with respect to NO production): < 2 µM
effect on level of NO [11, 14]: not reduced
anti-inflammatory effect, paw edema and inflammation (rat paw edema): suppression of rat paw edema and inflammation
IC50 (NO production): 5 µM

α1-acid glycoprotein: other glycoprotein, net negatively charged at physiological pH
augmentation of CNI-1493 activity (nitrite production) [11]: only fetuin was effective in augmenting CNI-1493 therapeutic activity

B1: asialofetuin: fetuin glycoprotein treated to remove terminal sialic acid residues (protein, UniProt P12763 19-359, looked up)
Alpha-2-HS-glycoprotein: IPLDPVAGYKEPACDDPDTEQAALAAVDYINKHLPRGYKHTLNQIDSVKVWPRRPTGEVYDIEIDTLETTCHVLDPTPLANCSVRQQTQHAVEGDCDIHVLKQDGQFSVLFTKCDSSPDSAEDVRKLCPDCPLLAPLNDSRVVHAVEVALATFNAESNGSYLQLVEISRAQFVPLPVSVSVEFAVAATDCIAKEVVDPTKCNLLAEKQYGFCKGSVIQKALGGEDVRVTCTLFQTQPVIPQPQPDGAEAEAPSAVPDAAGPTPSAAGPPVASVVVGPSVVAVPLPLHRAHYDLRHTFSGVASVESSSGEAFHVGKTPIVGQPSIPGGPVRLCPGRIRYFKI
modifications: desialylated
notes: fetuin glycoprotein treated to remove terminal sialic acid residues
enhancement of CNI-1493 activity (suppression of urea production) ([3]; non-responsive cultures, glycoprotein 1.0 and 2.5 μg/ml, CNI-1493 2.5 μM, FIG. 10): not nearly as active as fetuin

B2: bovine fetuin (Sigma): globular 341-amino acid polypeptide with six internal disulfide bonds and three N-linked and two O-linked oligosaccharide chains (protein, UniProt P12763 19-359, looked up)
Alpha-2-HS-glycoprotein: IPLDPVAGYKEPACDDPDTEQAALAAVDYINKHLPRGYKHTLNQIDSVKVWPRRPTGEVYDIEIDTLETTCHVLDPTPLANCSVRQQTQHAVEGDCDIHVLKQDGQFSVLFTKCDSSPDSAEDVRKLCPDCPLLAPLNDSRVVHAVEVALATFNAESNGSYLQLVEISRAQFVPLPVSVSVEFAVAATDCIAKEVVDPTKCNLLAEKQYGFCKGSVIQKALGGEDVRVTCTLFQTQPVIPQPQPDGAEAEAPSAVPDAAGPTPSAAGPPVASVVVGPSVVAVPLPLHRAHYDLRHTFSGVASVESSSGEAFHVGKTPIVGQPSIPGGPVRLCPGRIRYFKI
enhancement of CNI-1493 activity (TNF suppression in PBMCs) [4]: enhanced, in a dose-dependent fashion
enhancement of CNI-1493 activity (suppression of serum TNF) [12]: greatly enhanced CNI-1493 therapeutic activity

B3: fetuin: globular protein of about 60-70 kDa, containing 20-25% carbohydrate (protein, UniProt P12763 19-359, looked up)
Alpha-2-HS-glycoprotein: IPLDPVAGYKEPACDDPDTEQAALAAVDYINKHLPRGYKHTLNQIDSVKVWPRRPTGEVYDIEIDTLETTCHVLDPTPLANCSVRQQTQHAVEGDCDIHVLKQDGQFSVLFTKCDSSPDSAEDVRKLCPDCPLLAPLNDSRVVHAVEVALATFNAESNGSYLQLVEISRAQFVPLPVSVSVEFAVAATDCIAKEVVDPTKCNLLAEKQYGFCKGSVIQKALGGEDVRVTCTLFQTQPVIPQPQPDGAEAEAPSAVPDAAGPTPSAAGPPVASVVVGPSVVAVPLPLHRAHYDLRHTFSGVASVESSSGEAFHVGKTPIVGQPSIPGGPVRLCPGRIRYFKI
augmentation of CNI-1493 activity (nitrite production) [11]: only fetuin was effective in augmenting CNI-1493 therapeutic activity

B4: glycophorin: other glycoprotein, net negatively charged at physiological pH (protein, UniProt P02724 20-150, looked up)
Glycophorin-A: LSTTEVAMHTSTSSSVTKSYISSQTNDTHKRDTYAATPRAHEVSEISVRTVYPPEEETGERVQLAHHFSEPEITLIIFGVMAGVIGTILLISYGIRRLIKKSPSDVKPLPSPDTDVPLSSVEIENPETSDQ
augmentation of CNI-1493 activity (nitrite production) [11]: only fetuin was effective in augmenting CNI-1493 therapeutic activity

B5: human fetuin glycoprotein: human fetuin glycoprotein (commercially prepared, Sigma) (protein)
chain: MKSLVLLLCLAQLWGCHSAPHGPGLIYRQPNCDDPETEEAALVAIDYINQNLPWGYKHTLNQIDEVKVWPQQPSGELFEIEIDTLETTCHVLDPTPVARCSVRQLKEHAVEGDCDFQLLKLDGKFSVVYAKCDSSPDSAEDVRKVCQDCPLLAPLNDTRVVHAAKAALAAFNAQNNGSNFQLEEISRAQLVPLPPSTYVEFTVSGTDCVAKEATEAAKCNLLAEKQYGFCKATLSEKLGGAEVAVTCTVFQTQPVTSQPQPEGANEAVPTPVVDPDAPPSPPLGAPGLPPAGSPPDSHVLLAAPPGHQLHRAHYDLRHTFMGVVSLGSPSGEVSHPRKTRTVVQPSVGAAAGPVVPPCPGRIRHFKV
enhancement of CNI-1493 activity (TNF suppression in PBMCs) [4]: enhanced
